Measured values published in patent publication US8143393B2, “Substituted 4-amino-pyrrolotriazine derivatives useful for treating hyper-proliferative disorders and diseases associated with angiogenesis” (Bayer HealthCare LLC, priority 2005, dated 2012).

Experiments:
[1] = tested on: histone 3 phosphorylation in colon carcinoma (HCT116); assay: p-Histone3 assay; assay type: cell-based; conditions: Homo sapiens, HCT-116, 24 h, HCT116, 24 h treatment
Method: Compounds were assayed for the inhibition of histone 3 phosphorylation in colon carcinoma (HCT116). Briefly, 20,000 cells/well were seeded in a 96-well black-walled, poly-d-lysine plates in RPMI+10% FBS and incubated at 37° C. in 5% CO2 overnight. The following day, the cells were treated with compounds for 24 hours at 37° C. Following compound treatment; plates were centrifuged at 1000 rpm for 2 minutes and washed twice with 100 μl of cold sterile TBS. Cells were then fixed with cold 3.7% formaldehyde in TBS (4° C. for 1 hour) and then permeabolized with 0.1% Triton-X-100 in TBS (room temperature for 30 minutes). Plates were then washed with of 0.25% BSA-TBS and blocked with BSA solution for 1 hour at room temperature while shaking. The supernatant was removed and replaced with diluted primary antibody (anti-phospho-histone 3, serine 10, Cell Signaling) at 1:250 in 0.25% BSA-TBS and incubated overnight at 4° C. The plates were washed and treated with diluted secondary antibody (anti-rabbit Eu-labeled) at 1:10000 in 0.25% BSA-TBS (room temperature for 1 hour). The antibody solution was removed from each well and washed eight times. The wash buffer was replaced with 50 μl pre-warmed enhancement solution and mixed on the orbital shaker for 10 minutes. Fluorescence was detected with a Victor V Fluorescence Detector. The data are expressed as percent inhibition: % inhibition=100−((Signal with inhibitor−background)/(Signal without inhibitor−background))−100.

[2] = tested on: MDA-MB-231 cells; assay: Tumor cell proliferation (MDA-MB-231 proliferation assay); assay type: cell-based; conditions: Homo sapiens, MDA-MB-231, 72 h, Alamar Blue
Method: (§1) Human tumor cells (e.g., HCT116 or MDA-MB-231 cells), were seeded in a Costar 96-well plate at 3.0×10^3 cells/well and grown in 150 μl of RPMI complete media (Invitrogen Corporation, Grand Island, N.Y.) containing 10% fetal bovine serum (Hyclone, Logan, Utah) at 37° C. for 16 h in an incubator with 5% CO2. To each well, 50 μl of additional growth media containing 40 μM to 18 nM concentrations of compound with 0.4% DMSO was added. Cells were grown for another 72 h at 37° C. with 5% CO2. 20 μl of Alamar Blue (Trek Diagnostic Systems, Inc., Cleveland, Ohio) reagent was added to each well and incubated for 3 h at 37° C. Plates were read in a SpectraMax Gemini (Molecular Devices, CA) with 544 nm excitation and 590 nm emission wavelength. IC50 values were determined by linear regression analysis of log drug concentration versus percent inhibition.

[3] = molecular target: T1, FGFR-1 (Homo sapiens, UniProt P11362); assay: FGFR-1 TR-FRET biochemical assay; conditions: 0.6 uM ATP, 5 nM FGFR1-GST; bounds given in nM
T1 construct: GST; made in house
T1 sequence (P11362 22-822): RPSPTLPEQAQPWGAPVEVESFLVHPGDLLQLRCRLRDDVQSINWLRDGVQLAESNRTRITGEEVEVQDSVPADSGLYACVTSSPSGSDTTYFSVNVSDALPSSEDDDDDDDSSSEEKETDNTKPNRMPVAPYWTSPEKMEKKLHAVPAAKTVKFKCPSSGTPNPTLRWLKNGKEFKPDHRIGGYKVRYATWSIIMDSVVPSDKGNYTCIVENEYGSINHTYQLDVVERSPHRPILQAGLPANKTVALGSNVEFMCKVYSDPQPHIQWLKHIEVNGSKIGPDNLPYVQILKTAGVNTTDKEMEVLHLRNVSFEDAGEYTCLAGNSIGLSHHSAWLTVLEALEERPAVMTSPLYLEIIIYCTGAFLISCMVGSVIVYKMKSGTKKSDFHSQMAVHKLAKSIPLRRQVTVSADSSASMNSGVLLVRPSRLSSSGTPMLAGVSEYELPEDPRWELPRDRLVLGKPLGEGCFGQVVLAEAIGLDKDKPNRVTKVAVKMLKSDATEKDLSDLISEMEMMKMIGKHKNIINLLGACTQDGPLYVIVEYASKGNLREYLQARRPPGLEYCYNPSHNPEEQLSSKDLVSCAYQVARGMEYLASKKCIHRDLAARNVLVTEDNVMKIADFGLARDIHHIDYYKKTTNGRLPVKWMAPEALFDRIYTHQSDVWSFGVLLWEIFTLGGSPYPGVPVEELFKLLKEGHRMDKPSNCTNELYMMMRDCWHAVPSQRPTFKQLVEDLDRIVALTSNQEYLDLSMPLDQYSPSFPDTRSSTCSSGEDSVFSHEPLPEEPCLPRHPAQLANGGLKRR
In short: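 FGFR1-GST (5 nM) was incubated with poly GT-biotin (25 nM) and 0.6 uM ATP in HEPES pH 7.5/MgCl2 with 1% DMSO for 1 h at room temperature. Phosphorylation was read by LANCE TR-FRET (Eu-anti-pTyr/SA-APC, 665/615 ratio). Percent inhibition was background-corrected against no-ATP wells, with final compound concentrations of 10 μM–0.128 nM.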

[4] = tested on: H460; assay: Tumor cell proliferation (H460 proliferation assay); assay type: cell-based; conditions: Homo sapiens, NCI-H460, 72 h, Alamar Blue
Method: as §1

[5] = tested on: HCT116 cells; assay: Tumor cell proliferation (HCT116 proliferation assay); assay type: cell-based; conditions: Homo sapiens, HCT-116, 72 h, Alamar Blue
Method: as §1

[6] = lower bound of the bin 'greater than 500 nM but less than 3 μM'
[7] = upper bound of the bin 'greater than 500 nM but less than 3 μM'
[8] = lower bound of the bin 'greater than 500 nM but less than 4 μM'
[9] = upper bound of the bin 'greater than 500 nM but less than 4 μM'
[10] = lower bound of the bin 'greater than 500 nM but less than 5 μM'

Structure (SMILES) | IC50 ([1]; bounds given in μM) [µM] | IC50 [3] [nM] | IC50 [1, 10] [µM] | further results
Nc1ncnn2c(CN3CCOCC3)cc(-c3ccc(NC(=O)Nc4ccc(C(F)(F)F)cn4)cc3)c12 [Example 56, N-{4-[4-amino-7-(morpholin-4-ylmethyl)pyrrolo[2,1-f][1,2,4]-triazin-5-yl]phenyl}-N′-[5-(trifluoromethyl)pyridin-2-yl]urea] | 5 to 10 |  |  | 
Nc1ncnn2c(CN3CCOCC3)cc(-c3ccc(NC(=O)Nc4cc(C(F)(F)F)ccn4)cc3)c12 [Example 3, N-{4-[4-amino-7-(morpholin-4-ylmethyl)pyrrolo[2,1-f][1,2,4]triazin-5-yl]phenyl}-N′-[4-(trifluoromethyl)pyridin-2-yl]urea] |  | < 10 |  | IC50 [2, 6]: > 500 nM; IC50 [2, 7]: < 3000 nM; IC50 [4, 8]: > 500 nM; IC50 [4, 9]: < 4000 nM; IC50 [5, 8]: > 500 nM; IC50 [5, 9]: < 4000 nM
Nc1ncnn2c(CN3CCOCC3)cc(-c3ccc(NC(=O)Nc4cc(C(F)(F)F)ccn4)c(F)c3)c12 [Example 8, N-{4-[4-amino-7-(morpholin-4-ylmethyl)pyrrolo[2,1-f][1,2,4]triazin-5-yl]-2-fluorophenyl}-N′-[4-(trifluoromethyl)pyridin-2-yl]urea] |  | < 10 |  | IC50 [4, 8]: > 500 nM; IC50 [4, 9]: < 4000 nM
Nc1ncnn2c(CN3CCOCC3)cc(-c3ccc(NC(=O)Nc4cc(C(F)(F)F)ccc4F)c(F)c3)c12 [Example 1] |  | < 10 |  | IC50 [4, 8]: > 500 nM; IC50 [4, 9]: < 4000 nM
COc1cccc(NC(=O)Nc2ccc(-c3cc(CN4CCOCC4)n4ncnc(N)c34)cc2F)n1 [Example 72, N-4-[4-amino-7-(morpholin-4-ylmethyl)pyrrolo[2,1-f][1,2,4]triazin-5-yl]-2-fluorophenyl-N′-(6-methoxypyridin-2-yl)urea] | 5 to 10 |  |  | 
Nc1ncnn2c(CN3CCOCC3)cc(-c3ccc(NC(=O)Nc4cccc(C(F)(F)F)c4)cc3)c12 [Example 5, N-{4-[4-amino-7-(morpholin-4-ylmethyl)-pyrrolo[2,1-f][1,2,4]triazin-5-yl]phenyl}-N′-[3-(trifluoromethyl)phenyl]urea] |  |  |  | IC50 [2, 6]: > 500 nM; IC50 [2, 7]: < 3000 nM; IC50 [4, 8]: > 500 nM; IC50 [4, 9]: < 4000 nM; IC50 [5, 8]: > 500 nM; IC50 [5, 9]: < 4000 nM
Nc1ncnn2c(CN3CCOCC3)cc(-c3ccc(NC(=O)Nc4cccc(Br)n4)c(F)c3)c12 [Example 73, N-4-[4-amino-7-(morpholin-4-ylmethyl)pyrrolo[2,1-f][1,2,4]-triazin-5-yl]-2-fluorophenyl-N′-(6-bromopyridin-2-yl)urea] | 5 to 10 |  |  | 
COc1ccc(C(C)(C)C)cc1NC(=O)Nc1ccc(-c2cc(CN3CCOCC3)n3ncnc(N)c23)cc1 [Example 44, N-{4-[4-amino-7-(morpholin-4-ylmethyl)pyrrolo[2,1-f][1,2,4]triazin-5-yl]phenyl}-N′-(5-tert-butyl-2-methoxyphenyl)urea] | 5 to 10 | 10 to 100 |  | 
Cc1ccc(F)c(NC(=O)Nc2ccc(-c3cc(CN4CCOCC4)n4ncnc(N)c34)cc2)c1 [Example 46, N-{4-[4-amino-7-(morpholin-4-ylmethyl)pyrrolo[2,1-f][1,2,4]triazin-5-yl]phenyl}-N′-(2-fluoro-5-methylphenyl)urea] | 5 to 10 |  |  | 
Nc1ncnn2c(CO)cc(-c3ccc(NC(=O)Nc4cccc(C(F)(F)F)n4)cc3)c12 [Example 105, N-{4-[4-amino-7-(hydroxymethyl)pyrrolo[2,1-f][1,2,4]triazin-5-yl]phenyl}-N′-[6-(trifluoromethyl)pyridin-2-yl]urea] | < 5 |  | > 0.5 | 

Second part, led by results:

IC50 ([1]; bounds given in μM) [µM] | IC50 [3] [nM] | IC50 [1, 10] [µM] | Structure (SMILES) | further results
< 5 | 10 to 100 | > 0.5 | CS(=O)(=O)N1CCN(Cc2cc(-c3ccc(NC(=O)Nc4cc(C(F)(F)F)ccc4F)cc3)c3c(N)ncnn23)CC1 [Example 83, N-[4-(4-amino-7{[4(methylsulfonyl)-piperazin-1-yl]methyl}pyrrolo[2,1-f][1,2,4]triazin-5-yl)phenyl]-N′-[2-fluoro-5-(trifluoromethyl)phenyl]urea] | 
< 5 | < 10 | > 0.5 | Nc1ncnn2c(CN3CCOCC3)cc(-c3ccc(NC(=O)Nc4cc(C(F)(F)F)ccc4F)cc3F)c12 [Example 16, N-{4-[4-amino-7-(morpholin-4-ylmethyl)pyrrolo[2,1-f][1,2,4]triazin-5-yl]-3-fluorophenyl}-N′-[2-fluoro-5-(trifluoromethyl)phenyl]urea] | 
< 5 | < 10 | > 0.5 | Nc1ncnn2c(CN3CCOCC3)cc(-c3cc(F)c(NC(=O)Nc4cc(C(F)(F)F)ccc4F)cc3F)c12 [Example 15, N-{4-[4-amino-7-(morpholin-4-ylmethyl)pyrrolo[2,1-f][1,2,4]triazin-5-yl]-2,5-difluorophenyl}-N′-[2-fluoro-5-(trifluoromethyl)phenyl]urea] | 
< 5 | < 10 | > 0.5 | Cc1cc(-c2cc(CN3CCOCC3)n3ncnc(N)c23)ccc1NC(=O)Nc1cc(C(F)(F)F)ccc1F [Example 25, N-{4-[4-amino-7-(morpholin-4-ylmethyl)pyrrolo[2,1-f][1,2,4]triazin-5-yl]-2-methylphenyl}-N′-[2-fluoro-5-(trifluoromethyl)phenyl]urea] | 
< 5 |  | > 0.5 | CS(=O)(=O)N1CCN(Cc2cc(-c3ccc(NC(=O)Nc4cccc(Br)n4)cc3)c3c(N)ncnn23)CC1 [Example 94, N-[4-(4-amino-7-[4-(methylsulfonyl)piperazin-1-yl]methylpyrrolo[2,1-f][1,2,4]triazin-5-yl)phenyl]-N′-(6-bromopyridin-2-yl)urea] | 
< 5 | < 10 | > 0.5 | Nc1ncnn2c(CN3CCOCC3)cc(-c3ccc(NC(=O)Nc4cc(C(F)(F)F)ccc4F)cc3)c12 [Example 4, N-{4-[4-amino-7-(morpholin-4-ylmethyl)-pyrrolo[2,1-f][1,2,4]triazin-5-yl]phenyl}-N′-[2-fluoro-5-(trifluoromethyl)phenyl]urea] | IC50 [2, 6]: > 500 nM; IC50 [2, 7]: < 3000 nM; IC50 [5, 8]: > 500 nM; IC50 [5, 9]: < 4000 nM
< 5 | < 10 | > 0.5 | Nc1ncnn2c(CN3CCOCC3)cc(-c3ccc(NC(=O)Nc4cccc(C(F)(F)F)c4)c(F)c3)c12 [Example 10, N-{4-[4-amino-7-(morpholin-4-ylmethyl)pyrrolo[2,1-f][1,2,4]triazin-5-yl]-2-fluorophenyl}-N′-[3-(trifluoromethyl)phenyl]urea] | 
< 5 |  | > 0.5 | CC(=O)N1CCN(Cc2cc(-c3ccc(NC(=O)Nc4cccc(Br)n4)cc3)c3c(N)ncnn23)CC1 [Example 93, N-(4-7-[(4-acetylpiperazin-1-yl)methyl]-4-aminopyrrolo[2,1-f][1,2,4]triazin-5-ylphenyl)-N′-(6-bromopyridin-2-yl)urea] | 
< 5 |  | > 0.5 | Nc1ncnn2c(CN3CCNCC3)cc(-c3ccc(NC(=O)Nc4cccc(Br)n4)cc3)c12 [Example 91, N-4-[4-amino-7-(piperazin-1-ylmethyl)pyrrolo[2,1-f][1,2,4]-triazin-5-yl]phenyl-N′-(6-bromopyridin-2-yl)urea] | 
< 5 |  | > 0.5 | CC(=O)N1CCN(Cc2cc(-c3ccc(NC(=O)Nc4cc(C(F)(F)F)ccc4F)cc3)c3c(N)ncnn23)CC1 [Example 87, N-(4-{7-[(4-acetylpiperazin-1-yl)methyl]-4-aminopyrrolo[2,1-f][1,2,4]triazin-5-yl}phenyl)-N′-[2-fluoro-5-(trifluoromethyl)phenyl]urea] | 
